According to article PMC9220127, “Reactive Human Plasma Glutathione Peroxidase Mutant with Diselenide Bond Succeeds in Tetramer Formation” (Antioxidants, 2022):

Biological target: T1, Sec−hGPx3 (human plasma glutathione peroxidase, GPx3) (Homo sapiens, UniProt P22352)
T1 construct: mature form without signal peptide (nucleotides 1-72 removed), Sec49 inserted at UAG with tRNA-UTuT6, E. coli C321.ΔA.exp, Ni-NTA purified, unglycosylated, about 25 kDa; starts QEKSKMDCHGGIS
T1 sequence (P22352 25-226): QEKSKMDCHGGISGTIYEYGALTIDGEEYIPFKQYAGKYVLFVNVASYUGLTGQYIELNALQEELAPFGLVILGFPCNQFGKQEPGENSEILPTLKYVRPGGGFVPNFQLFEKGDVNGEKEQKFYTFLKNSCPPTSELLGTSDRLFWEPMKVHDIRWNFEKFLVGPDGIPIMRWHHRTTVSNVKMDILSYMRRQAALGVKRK
Test: glutathione reductase-coupled NADPH oxidation at […] nm
Format: biochemical
Conditions: 60 μM t-BuOOH, 1 mM GSH, 0.25 mM NADPH, 1 mM EDTA, pH 7.4, 37 °C; non-tetrameric recombinant enzyme

`CC(C)(C)OO` [t−BuOOH] was tested. Which “glutathione reductase-coupled NADPH oxidation at 340 nm” value did it give?
The value was “GR−coupled assay with H2O2 or t−BuOOH as substrates (Figure 1B), which revealed significant GPx activity”.
